In data set [1] the test system is imatinib- and sunitinib-resistant GISTs. Particulars: phase II study; cited from earlier work.
For data set [2], the system named is imatinib- or imatinib/sunitinib-resistant GIST. Particulars: sorafenib 400 mg twice daily, cited from earlier work.
Data set [3] concerns the target GIST48 cells (KIT V560D + D820A) (Homo sapiens, UniProt P10721, D820A/V560D). The settings on record: doses as low as 100 nmol/L.
The test system of data set [4] is drug-resistant GIST. The settings on record: third-line treatment, cited from earlier work.
Data set [5] concerns GIST patients. Particulars: GIST patients treated with sorafenib; cited from earlier work.
In data set [6] the test system is GIST after imatinib, sunitinib and nilotinib therapy. Particulars: fourth-line, 400 mg twice daily, cited from earlier work.
The test system of data set [7] is imatinib-resistant GIST. The settings on record: second-line setting; cited from earlier work.

Sequence of GIST48 cells (KIT V560D + D820A) (P10721 26-976 V560D/D820A): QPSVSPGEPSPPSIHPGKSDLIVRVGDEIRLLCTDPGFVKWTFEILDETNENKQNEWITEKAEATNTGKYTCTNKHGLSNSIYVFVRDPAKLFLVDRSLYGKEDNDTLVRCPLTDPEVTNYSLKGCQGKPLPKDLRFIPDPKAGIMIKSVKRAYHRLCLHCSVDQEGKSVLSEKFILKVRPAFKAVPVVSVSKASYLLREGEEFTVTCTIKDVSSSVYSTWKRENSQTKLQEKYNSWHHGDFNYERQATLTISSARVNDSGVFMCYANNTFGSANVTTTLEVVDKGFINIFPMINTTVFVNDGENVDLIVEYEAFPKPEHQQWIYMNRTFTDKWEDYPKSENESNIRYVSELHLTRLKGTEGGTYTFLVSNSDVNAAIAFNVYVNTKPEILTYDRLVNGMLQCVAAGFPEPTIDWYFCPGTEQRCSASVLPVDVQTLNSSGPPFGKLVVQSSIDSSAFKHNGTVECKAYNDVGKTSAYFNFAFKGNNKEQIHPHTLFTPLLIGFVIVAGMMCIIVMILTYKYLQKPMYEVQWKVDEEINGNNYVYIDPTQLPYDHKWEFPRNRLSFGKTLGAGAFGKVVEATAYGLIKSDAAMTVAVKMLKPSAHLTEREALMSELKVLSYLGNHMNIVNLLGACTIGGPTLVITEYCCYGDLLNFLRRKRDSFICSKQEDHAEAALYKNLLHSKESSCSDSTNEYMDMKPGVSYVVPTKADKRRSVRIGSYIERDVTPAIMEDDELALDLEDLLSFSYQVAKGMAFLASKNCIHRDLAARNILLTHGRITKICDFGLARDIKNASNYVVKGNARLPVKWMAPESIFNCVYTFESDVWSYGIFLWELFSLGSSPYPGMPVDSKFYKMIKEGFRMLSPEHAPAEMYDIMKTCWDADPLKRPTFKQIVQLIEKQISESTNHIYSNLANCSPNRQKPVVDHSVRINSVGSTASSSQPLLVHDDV

`CNC(=O)c1cc(Oc2ccc(NC(=O)Nc3ccc(Cl)c(C(F)(F)F)c3)c(F)c2)ccn1` [Regorafenib]: in data set [1], the clinical benefit rate is on record as 55% and the “median PFS” value is 10 months.

In the case of `CNC(=O)c1cc(Oc2ccc(NC(=O)Nc3ccc(Cl)c(C(F)(F)F)c3)cc2)ccn1` [Sorafenib], the disease control rate in data set [2] (38 patients) is recorded as 68%. For the same molecule, in data set [2], the “hand-foot syndrome (grade 3-4 toxicity)” value is recorded as 45%, the “median OS” value is given as 11.6 months, the “patients requiring at least one dose reduction” value is on record as 63% and the “rate of grade 3-4 toxicity” value is on record as “greater than 50%”. Also, the “inhibition of KIT phosphorylation” value in data set [3] amounted to 85%. For the same molecule, the “median OS” value in data set [4] (median follow-up of 7.5 months) is reported as “had not been reached”. Moreover, in data set [4], the “median PFS” value is 4.6 months and the “overall disease control rate” value is 65%. In addition, in data set [5], the “grade 3-4 anemia” value was 7%, the “grade 3-4 elevated liver enzymes or bilirubin” value is recorded as 7%, the “grade 3-4 fatigue” value was 5% and the “grade 3-4 hand-foot skin reaction” value is 16%. In addition, in data set [5], the “grade 3-4 hypertension” value was 5%. In data set [6] (32 patients), the “overall tumor control rate” value is given as 63%. The “median PFS” value in data set [6] was 4.6 months.

Take `CCN(CC)CCNC(=O)c1c(C)[nH]c(/C=C2\C(=O)Nc3ccc(F)cc32)c1C` [Sunitinib]: in data set [7], the disease control rate is given as 65% and the “median OS” value is 17.2 months.

(Values after article PMC3992122 (Molecular cancer therapeutics, 2012).)
